Assay results reported in PubChem BioAssay (NCI).
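In this assay, cells in 96-well plates receive the compound at five concentrations for 48 hours. Endpoints are linearly interpolated between the surrounding concentrations. GI50: concentration for 50% inhibition of growth. At the TGI there is no net growth.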

Experiments:
Experiment in all cases: NCI anticancer screen, dose series, 48 h
HOP-62 NSCLC = system: HOP-62 NSCLC
KM12 colon = system: KM12 colon
SR leukemia = system: SR leukemia
SW-620 colon = system: SW-620 colon
HCT-116 colon = system: HCT-116 colon
HT29 colon = system: HT29 colon
DU-145 prostate = system: DU-145 prostate
A549 NSCLC = system: A549 NSCLC
SF-539 CNS = system: SF-539 CNS
CAKI-1 renal = system: CAKI-1 renal
HOP-92 NSCLC = system: HOP-92 NSCLC
T-47D breast = system: T-47D breast
SF-268 CNS = system: SF-268 CNS
RXF 393 renal = system: RXF 393 renal
SNB-19 CNS = system: SNB-19 CNS
PC-3 prostate = system: PC-3 prostate
HCT-15 colon = system: HCT-15 colon
K-562 leukemia = system: K-562 leukemia
NCI-H23 lung = system: NCI-H23 lung
ACHN renal = system: ACHN renal
OVCAR-8 ovarian = system: OVCAR-8 ovarian
COLO 205 colon = system: COLO 205 colon
M14 melanoma = system: M14 melanoma
RPMI-8226 leukemia = system: RPMI-8226 leukemia
UO-31 renal = system: UO-31 renal
UACC-257 melanoma = system: UACC-257 melanoma
MOLT-4 leukemia = system: MOLT-4 leukemia
SN12C renal = system: SN12C renal
BT-549 breast = system: BT-549 breast
HL-60(TB) leukemia = system: HL-60(TB) leukemia
OVCAR-3 ovarian = system: OVCAR-3 ovarian
MALME-3M melanoma = system: MALME-3M melanoma
LOX IMVI melanoma = system: LOX IMVI melanoma
NCI-H460 lung = system: NCI-H460 lung
MCF7 breast = system: MCF7 breast
OVCAR-5 ovarian = system: OVCAR-5 ovarian
U251 CNS = system: U251 CNS
MDA-MB-435 = system: MDA-MB-435
OVCAR-4 ovarian = system: OVCAR-4 ovarian
TK-10 renal = system: TK-10 renal
NCI/ADR-RES ovarian = system: NCI/ADR-RES ovarian
IGROV1 ovarian = system: IGROV1 ovarian
NCI-H522 lung = system: NCI-H522 lung
SK-MEL-2 melanoma = system: SK-MEL-2 melanoma
A498 renal = system: A498 renal
HS 578T breast = system: HS 578T breast
NCI-H226 lung = system: NCI-H226 lung
SF-295 CNS = system: SF-295 CNS
CCRF-CEM leukemia = system: CCRF-CEM leukemia
SK-MEL-28 melanoma = system: SK-MEL-28 melanoma
786-0 renal = system: 786-0 renal
UACC-62 melanoma = system: UACC-62 melanoma
SK-OV-3 ovarian = system: SK-OV-3 ovarian
MDA-MB-231 breast = system: MDA-MB-231 breast
HCC-2998 colon = system: HCC-2998 colon
SK-MEL-5 melanoma = system: SK-MEL-5 melanoma
SNB-75 CNS = system: SNB-75 CNS

Cc1ccc2c(c1)c(C1=C(c3cn(C)c4ccccc34)C(=O)NC1=O)cn2C
GI50 (HOP-62 NSCLC): 3.17 µM
TGI (HOP-62 NSCLC): > 25 µM
GI50 (KM12 colon): 1.92 µM
TGI (KM12 colon): 9.09 µM
GI50 (SR leukemia): 0.966 µM
TGI (SR leukemia): 9.81 µM
GI50 (SW-620 colon): 1.16 µM
TGI (SW-620 colon): > 25 µM
GI50 (HCT-116 colon): 1.36 µM
TGI (HCT-116 colon): 10.2 µM
GI50 (HT29 colon): 1.01 µM
TGI (HT29 colon): 6.77 µM
GI50 (DU-145 prostate): 6.73 µM
TGI (DU-145 prostate): 22.2 µM
GI50 (A549 NSCLC): 1.97 µM
TGI (A549 NSCLC): > 25 µM
GI50 (SF-539 CNS): 1.11 µM
TGI (SF-539 CNS): 5.58 µM
GI50 (CAKI-1 renal): 3.63 µM
TGI (CAKI-1 renal): > 25 µM
GI50 (HOP-92 NSCLC): 5.96 µM
TGI (HOP-92 NSCLC): > 22.1 µM
GI50 (T-47D breast): 4 µM
TGI (T-47D breast): 20 µM
GI50 (SF-268 CNS): 3.09 µM
TGI (SF-268 CNS): > 25 µM
GI50 (RXF 393 renal): 1.54 µM
TGI (RXF 393 renal): 4.79 µM
GI50 (SNB-19 CNS): 8.15 µM
TGI (SNB-19 CNS): > 25 µM
GI50 (PC-3 prostate): 1.75 µM
TGI (PC-3 prostate): > 25 µM
GI50 (HCT-15 colon): 1.39 µM
TGI (HCT-15 colon): > 25 µM
GI50 (K-562 leukemia): 1.53 µM
TGI (K-562 leukemia): > 25 µM
GI50 (NCI-H23 lung): 4.9 µM
TGI (NCI-H23 lung): > 25 µM
GI50 (ACHN renal): 3.09 µM
TGI (ACHN renal): > 23.4 µM
GI50 (OVCAR-8 ovarian): 5.3 µM
TGI (OVCAR-8 ovarian): > 25 µM
GI50 (COLO 205 colon): 1.49 µM
TGI (COLO 205 colon): 7.18 µM
GI50 (M14 melanoma): 2.07 µM
TGI (M14 melanoma): > 25 µM
GI50 (RPMI-8226 leukemia): 2.19 µM
TGI (RPMI-8226 leukemia): 9.18 µM
GI50 (UO-31 renal): 2.77 µM
TGI (UO-31 renal): 13.8 µM
GI50 (UACC-257 melanoma): 3.39 µM
TGI (UACC-257 melanoma): > 24.2 µM
GI50 (MOLT-4 leukemia): 2.56 µM
TGI (MOLT-4 leukemia): 13.9 µM
GI50 (SN12C renal): 3.12 µM
TGI (SN12C renal): 16.8 µM
GI50 (BT-549 breast): 3.65 µM
TGI (BT-549 breast): 11.1 µM
GI50 (HL-60(TB) leukemia): 1.33 µM
TGI (HL-60(TB) leukemia): 11.3 µM
GI50 (OVCAR-3 ovarian): 0.904 µM
TGI (OVCAR-3 ovarian): 3.44 µM
GI50 (MALME-3M melanoma): 4.4 µM
TGI (MALME-3M melanoma): > 21.4 µM
GI50 (LOX IMVI melanoma): 2.93 µM
TGI (LOX IMVI melanoma): > 23.4 µM
GI50 (NCI-H460 lung): 1.26 µM
TGI (NCI-H460 lung): 9.01 µM
GI50 (MCF7 breast): 1.08 µM
TGI (MCF7 breast): > 16.3 µM
GI50 (OVCAR-5 ovarian): 10.8 µM
TGI (OVCAR-5 ovarian): > 25 µM
GI50 (U251 CNS): 1.52 µM
TGI (U251 CNS): > 25 µM
GI50 (MDA-MB-435): 0.674 µM
TGI (MDA-MB-435): > 11.2 µM
GI50 (OVCAR-4 ovarian): 3.79 µM
TGI (OVCAR-4 ovarian): > 21.8 µM
GI50 (TK-10 renal): 8.67 µM
TGI (TK-10 renal): > 25 µM
GI50 (NCI/ADR-RES ovarian): 3.23 µM
TGI (NCI/ADR-RES ovarian): > 25 µM
GI50 (IGROV1 ovarian): 5.23 µM
TGI (IGROV1 ovarian): > 14.9 µM
GI50 (NCI-H522 lung): 0.927 µM
TGI (NCI-H522 lung): 12.2 µM
GI50 (SK-MEL-2 melanoma): 1.42 µM
TGI (SK-MEL-2 melanoma): 6.81 µM
GI50 (A498 renal): 1.34 µM
TGI (A498 renal): 6.14 µM
GI50 (HS 578T breast): 0.595 µM
TGI (HS 578T breast): 3.55 µM
GI50 (NCI-H226 lung): 3.57 µM
TGI (NCI-H226 lung): 13 µM
GI50 (SF-295 CNS): 1.4 µM
TGI (SF-295 CNS): > 15.7 µM
GI50 (CCRF-CEM leukemia): 1.32 µM
TGI (CCRF-CEM leukemia): 13.3 µM
GI50 (SK-MEL-28 melanoma): 4 µM
TGI (SK-MEL-28 melanoma): > 22.5 µM
GI50 (786-0 renal): 5.21 µM
TGI (786-0 renal): > 22.8 µM
GI50 (UACC-62 melanoma): 1.35 µM
TGI (UACC-62 melanoma): 9.79 µM
GI50 (SK-OV-3 ovarian): 2.72 µM
TGI (SK-OV-3 ovarian): > 25 µM
GI50 (MDA-MB-231 breast): 6.93 µM
TGI (MDA-MB-231 breast): > 25 µM
GI50 (HCC-2998 colon): 9.25 µM
TGI (HCC-2998 colon): > 25 µM
GI50 (SK-MEL-5 melanoma): 1.48 µM
TGI (SK-MEL-5 melanoma): 5.07 µM
GI50 (SNB-75 CNS): 0.723 µM
TGI (SNB-75 CNS): > 17.8 µM
